Experimental data from publication PMC2987581 (Tetrahedron letters, 2010).

Tests used:
trypsin = molecular target: T1, trypsin (Bos taurus, UniProt P00760); assay: serine protease inhibition screen, trypsin; format: biochemical; settings: at 100 μM, the highest concentration tested
T1 sequence (P00760 24-246): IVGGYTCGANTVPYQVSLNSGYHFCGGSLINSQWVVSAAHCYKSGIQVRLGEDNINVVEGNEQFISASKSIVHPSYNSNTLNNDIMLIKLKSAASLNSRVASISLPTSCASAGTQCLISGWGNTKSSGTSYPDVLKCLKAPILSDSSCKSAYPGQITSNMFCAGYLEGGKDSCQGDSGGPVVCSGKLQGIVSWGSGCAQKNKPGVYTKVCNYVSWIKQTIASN

aspartic protease BACE1 = aspartic protease BACE1 (Homo sapiens, UniProt P56817); assay: aspartic protease inhibition, BACE1; format: biochemical; settings: at concentrations up to 30 μM
Chain of aspartic protease BACE1 (P56817 46-501): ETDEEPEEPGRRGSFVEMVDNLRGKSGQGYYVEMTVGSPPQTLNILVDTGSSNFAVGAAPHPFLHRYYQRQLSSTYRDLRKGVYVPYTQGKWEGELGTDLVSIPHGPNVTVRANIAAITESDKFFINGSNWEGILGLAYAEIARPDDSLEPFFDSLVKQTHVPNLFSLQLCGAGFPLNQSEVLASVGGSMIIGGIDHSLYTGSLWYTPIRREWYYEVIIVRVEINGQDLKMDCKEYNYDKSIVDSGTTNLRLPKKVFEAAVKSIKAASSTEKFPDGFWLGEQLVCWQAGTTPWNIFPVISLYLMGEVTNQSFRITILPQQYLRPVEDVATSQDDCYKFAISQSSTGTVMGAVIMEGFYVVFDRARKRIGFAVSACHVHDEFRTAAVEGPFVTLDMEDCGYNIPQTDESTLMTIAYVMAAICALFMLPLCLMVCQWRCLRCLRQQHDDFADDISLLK

Row | Structure (SMILES) | inhibition of trypsin (trypsin) | inhibition of BACE1 (aspartic protease BACE1)
1 | C/C=C1\NC(=O)[C@@H](NC(=O)[C@@H](NC(=O)[C@H](C)NC(=O)CCC)C(C)C)[C@@H](C)OC(=O)[C@H](C(C)C)NC(=O)[C@H](Cc2ccc(O)cc2)N(C)C(=O)[C@H](Cc2ccccc2)N2C(=O)[C@H](CC[C@H]2O)NC1=O [Compound 1, Bouillomide A] | no inhibition | does not inhibit
2 | C/C=C1\NC(=O)[C@@H](NC(=O)[C@@H](NC(=O)[C@H](C)NC(=O)CCC)C(C)C)[C@@H](C)OC(=O)[C@H](C(C)C)NC(=O)[C@H](Cc2ccc(O)c(Br)c2)N(C)C(=O)[C@H](Cc2ccccc2)N2C(=O)[C@H](CC[C@H]2O)NC1=O [Compound 2, Bouillomide B] | no inhibition | –
